The test system of test [1] is parent CHO cells (no transfected receptor). The test can be described thus: ERK1/2‐phosphorylation in parent CHO cells. In kind it is cell-based, Chinese hamster. Particulars: Cricetulus griseus, read-out: log EC50, ERK1/2‐phosphorylation in parent CHO cells (converted).
The next test has as its target T1, α1D‐adrenoceptor (Homo sapiens, UniProt P25100).
T1 sequence (P25100 1-572): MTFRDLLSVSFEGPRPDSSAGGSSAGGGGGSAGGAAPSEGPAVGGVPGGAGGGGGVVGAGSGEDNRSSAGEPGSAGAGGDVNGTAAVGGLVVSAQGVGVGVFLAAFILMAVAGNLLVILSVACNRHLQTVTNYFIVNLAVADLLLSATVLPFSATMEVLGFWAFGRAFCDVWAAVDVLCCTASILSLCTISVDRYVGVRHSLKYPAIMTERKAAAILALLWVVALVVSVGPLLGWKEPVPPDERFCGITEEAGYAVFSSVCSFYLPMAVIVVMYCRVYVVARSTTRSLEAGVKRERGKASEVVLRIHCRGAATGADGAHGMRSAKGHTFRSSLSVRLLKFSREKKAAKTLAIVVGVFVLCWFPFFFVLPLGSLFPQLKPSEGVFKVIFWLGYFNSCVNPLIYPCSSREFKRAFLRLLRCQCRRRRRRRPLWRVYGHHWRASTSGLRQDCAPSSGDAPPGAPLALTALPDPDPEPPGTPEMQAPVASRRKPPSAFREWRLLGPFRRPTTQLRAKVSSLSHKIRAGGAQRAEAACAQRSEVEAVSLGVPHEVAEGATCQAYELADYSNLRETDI
Particulars: CHO-α1D cells.

SMILES strings stand for the structures.

With `CC(C)C[C@H]1C(=O)N2CCC[C@H]2[C@]2(O)O[C@](NC(=O)[C@@H]3C=C4c5cccc6[nH]c(Br)c(c56)C[C@H]4N(C)C3)(C(C)C)C(=O)N12` [Bromocriptine], in test [1], the EC50 was 117 nM. Moreover, the “specific binding inhibited (early plateau)” value at α1D‐adrenoceptor is listed as 71.2 ± 3.4%.
